Assay results taken from publication PMC6899342 (PeerJ, 2019).
Where no end group is shown, it is not given here.

Molecular target: T1, PCV2 Cap protein (Porcine circovirus 2, UniProt O56129)
T1 construct: made in house; host or cells: E. coli BL21 (pET28a-Cap)
Test: biochemical
Format: binding, porcine circovirus type II
Settings: for kon: pH 7.4, read-out: ka
Procedure: The equilibrium binding constant (KD) of peptides was determined using an Open SPR instrument (Nicoya, Canada). First, purified Cap protein was covalently immobilized on a carboxyl Au colloidal nanoparticles chip. […] Then, all peptides were respectively dissolved in PBS at predetermined concentrations and injected to detect the resonance signal changes. In each cycle, 300 µL of peptide solution was injected into the flow cell of the Cap chip for 5 min. Finally, the data were assessed to determine the association constant (ka, 1/Ms), the dissociation constant (kd, 1/s), the equilibrium binding constant (KD, M), and KD = kd/ka via Trace Drawer 1.7 (Nicoya, Canada).
All the steps were performed according to manufacturer’s instructions. First, the activation of carboxyl chip: the chip is activated by the EDC/NHS reagent in the amine coupling kit. […] The last step is to block the chip with blocking buffer. In every step, The 300 μL sample was flowed through the chip for 5 min at a constant flow rate of 20 μL/min.
Dissociation constant Kd represents the ratio of AB (ie, AB) dissociated in unit time to the initial AB before dissociation, which represents the speed of the dissociation reaction.Equilibrium dissociation constant KD =kd/ka, KD unit is M (mol/L)
1:1 binding interaction model represents the binding mode of ligand and target according to 1:1. The1:1 binding interaction model is a differential equation:
dY/dt = (k a * c - k d )* Y

T1 sequence (O56129 whole entry): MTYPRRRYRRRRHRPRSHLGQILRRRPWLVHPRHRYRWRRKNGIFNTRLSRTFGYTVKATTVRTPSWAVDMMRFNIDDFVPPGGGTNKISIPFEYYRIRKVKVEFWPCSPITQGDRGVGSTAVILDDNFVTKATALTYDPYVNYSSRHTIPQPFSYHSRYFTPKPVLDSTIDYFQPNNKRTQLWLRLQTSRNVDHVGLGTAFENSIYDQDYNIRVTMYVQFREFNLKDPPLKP

Substance: WQGMMKEE [Peptide L4]
- Kd: 1.23 µM
- kon: 1920 M⁻¹ s⁻¹

Substance: RKHKRWK [Peptide L7]
- Kd: 1.06 µM
- kon: 856 M⁻¹ s⁻¹

Substance: KWWQSWEW [Peptide L13]
- Kd: 9.97 µM
- kon: 335 M⁻¹ s⁻¹

Substance: WQSWEWTG [Peptide L9]
- Kd: 6.71 µM
- kon: 855 M⁻¹ s⁻¹
